From the supplement of paper PMC10307832

Assays:
Assay in all cases: relative viability (nuclei count vs DMSO), 5 days (fraction); higher = more cells survive
Bleomycin = compound: CC1=C(N=C(N=C1N)[C@H](CC(=O)N)NC[C@@H](C(=O)N)N)C(=O)N[C@@H]([C@H](C2=CN=CN2)OC3C(C(C(C(O3)CO)O)O)OC4C(C(C(C(O4)CO)O)OC(=O)N)O)C(=O)N[C@H](C)[C@H]([C@H](C)C(=O)N[C@@H]([C@@H](C)O)C(=O)NCCC5=NC(=CS5)C6=NC(=CS6)C(=O)NCCC[S+](C)C)O [Bleomycin]; details: main component drawn
In short: (§1)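 Five library-drug doses, separated by factors of √10, were pinned into 1536-well plates holding lung cancer cell lines after an overnight stay at 37 °C. Cells were fixed, permeabilised and Hoechst-stained in one step after 5 days without medium change, then imaged at 4×. Viability compares treated-well with vehicle-well nuclei, counted in MetaXpress, as a median across plates. Passing plates had control CV below 25% and at least one doubling.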

Etoposide = compound: COc1cc([C@@H]2c3cc4c(cc3[C@@H](O[C@@H]3O[C@@H]5CO[C@@H](C)O[C@H]5[C@H](O)[C@H]3O)[C@H]3COC(=O)[C@H]23)OCO4)cc(OC)c1O [Etoposide]
In short: as §1

Bleomycin + Navitoclax = compound: CC1=C(N=C(N=C1N)[C@H](CC(=O)N)NC[C@@H](C(=O)N)N)C(=O)N[C@@H]([C@H](C2=CN=CN2)OC3C(C(C(C(O3)CO)O)O)OC4C(C(C(C(O4)CO)O)OC(=O)N)O)C(=O)N[C@H](C)[C@H]([C@H](C)C(=O)N[C@@H]([C@@H](C)O)C(=O)NCCC5=NC(=CS5)C6=NC(=CS6)C(=O)NCCC[S+](C)C)O [Bleomycin] + CC1(C)CCC(c2ccc(Cl)cc2)=C(CN2CCN(c3ccc(C(=O)NS(=O)(=O)c4ccc(N[C@H](CCN5CCOCC5)CSc5ccccc5)c(S(=O)(=O)C(F)(F)F)c4)cc3)CC2)C1 [Navitoclax] (partner 0.5 µM); details: main component drawn
In short: (§2)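 Each reported value is a median over duplicate plates. It expresses relative viability: treated-well nuclei count divided by vehicle-well nuclei count. Lung cancer cell lines in 1536-well plates were dosed by pin tool a day after seeding, alone with one drug or with a fixed anchor-drug dose plus five library-drug doses (not always all listed) in √10 steps, and nuclei were counted after 5 days.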

Etoposide + Phenformin = compound: COc1cc([C@@H]2c3cc4c(cc3[C@@H](O[C@@H]3O[C@@H]5CO[C@@H](C)O[C@H]5[C@H](O)[C@H]3O)[C@H]3COC(=O)[C@H]23)OCO4)cc(OC)c1O [Etoposide] + N=C(N)NC(=N)NCCc1ccccc1 [Phenformin] (partner 250 µM)
In short: as §2

Cell Line | relative viability (Bleomycin; 0.01 µM) | relative viability (Bleomycin; 0.03162 µM) | relative viability (Bleomycin; 0.1 µM) | relative viability (Bleomycin; 0.3162 µM) | relative viability (Bleomycin; 1 µM) | relative viability (Etoposide; 0.01 µM) | relative viability (Etoposide; 0.03162 µM) | relative viability (Etoposide; 0.1 µM) | relative viability (Etoposide; 0.3162 µM) | relative viability (Etoposide; 1 µM) | relative viability (Bleomycin + Navitoclax; first compound 0.01 µM) | relative viability (Bleomycin + Navitoclax; first compound 0.03162 µM) | relative viability (Bleomycin + Navitoclax; first compound 0.1 µM) | relative viability (Bleomycin + Navitoclax; first compound 0.3162 µM) | relative viability (Bleomycin + Navitoclax; first compound 1 µM) | relative viability (Etoposide + Phenformin; first compound 0.01 µM) | relative viability (Etoposide + Phenformin; first compound 0.03162 µM) | relative viability (Etoposide + Phenformin; first compound 0.1 µM) | relative viability (Etoposide + Phenformin; first compound 0.3162 µM) | relative viability (Etoposide + Phenformin; first compound 1 µM)
NCI-H1650 | 0.584 | 0.394 | 0.243 | 0.179 | 0.195 | 0.897 | 0.903 | 0.739 | 0.38 | 0.161 | 0.394 | 0.429 | 0.212 | 0.148 | 0.211 | 0.421 | 0.31 | 0.374 | 0.194 | 0.141
BEN | 0.94 | 0.943 | 0.973 | 0.638 | 0.742 | 0.932 | 0.986 |  | 1 | 0.913 | 0.0606 | 0.0742 | 0.0676 | 0.0599 | 0.0555 | 0.249 | 0.266 |  | 0.264 | 0.289
EMC-BAC-2 | 0.72 | 0.91 | 0.747 | 0.418 | 0.302 | 0.964 | 0.959 | 0.453 | 0.278 | 0.234 | 1.04 | 1.18 | 0.979 | 0.661 | 0.399 | 0.424 | 0.483 | 0.309 | 0.24 | 0.197
LU99A | 0.766 | 0.794 | 0.659 | 0.407 | 0.242 | 0.934 | 1.17 | 0.499 | 0.681 | 0.233 | 0.622 | 0.491 | 0.335 | 0.166 | 0.147 | 0.898 | 0.992 | 0.589 | 0.579 | 0.16
NCI-H2170 | 0.939 | 0.934 | 0.86 | 0.703 | 0.66 | 0.938 | 0.985 |  | 0.986 | 0.834 | 0.503 | 0.555 | 0.578 | 0.414 | 0.377 | 0.373 | 0.429 | 0.468 | 0.409 | 0.348
NCI-H2405 | 0.884 | 0.969 | 0.918 | 0.569 | 0.394 | 1.04 | 1.09 | 0.772 | 0.835 | 0.47 | 0.559 | 0.714 | 0.499 | 0.196 | 0.199 | 0.381 | 0.432 | 0.415 | 0.364 | 0.283
NCI-H1993 | 0.853 | 0.899 | 0.876 | 0.601 | 0.564 | 0.727 | 1.1 | 0.636 | 0.783 | 0.501 | 0.887 | 0.765 | 0.863 | 0.663 | 0.584 | 0.502 | 0.571 | 0.528 | 0.51 | 0.412
NCI-H441 | 0.626 | 0.922 | 0.862 | 0.651 | 0.42 | 0.923 | 1.03 | 0.751 | 0.308 | 0.172 |  | 0.733 | 0.574 | 0.389 | 0.339 | 0.835 | 0.976 | 0.587 | 0.275 | 0.198
PC-14 | 0.656 | 0.612 | 0.286 | 0.097 | 0.057 | 0.996 | 1.08 | 0.933 | 0.782 | 0.441 | 0.663 | 0.532 | 0.174 | 0.0752 | 0.0592 | 0.621 | 0.662 | 0.485 | 0.372 | 0.203
HARA | 0.804 | 0.769 | 0.842 | 0.506 | 0.537 | 0.856 | 1.18 | 0.979 | 0.849 | 0.348 | 1.1 | 1.08 | 1.02 | 0.747 | 0.601 | 0.507 | 0.407 | 0.504 | 0.366 | 0.178
NCI-H2126 | 0.961 | 1 | 1.03 | 0.758 | 0.714 | 0.977 | 1.05 | 0.63 | 0.859 | 0.441 | 0.787 | 0.82 | 0.839 | 0.8 | 0.643 | 0.524 | 0.534 | 0.427 | 0.413 | 0.236
NCI-H1437 | 0.879 | 0.985 | 0.886 | 0.654 | 0.567 | 1.04 | 1.07 | 0.999 | 0.68 | 0.343 | 0.952 | 1.07 | 0.978 | 0.667 | 0.491 | 0.265 | 0.342 | 0.357 | 0.233 | 0.2
NCI-H1792 | 0.755 | 1.03 | 0.733 | 0.387 | 0.421 | 1.01 | 1.22 | 0.522 | 0.816 | 0.416 | 0.541 | 0.665 | 0.492 | 0.302 | 0.109 | 0.177 | 0.189 |  | 0.257 | 0.0965
ChaGo-K-1 | 0.832 | 0.895 | 0.846 | 0.58 | 0.387 | 1.04 | 1.06 | 0.858 | 0.481 | 0.308 |  | 0.914 | 0.724 | 0.386 | 0.307 | 0.423 | 0.546 | 0.471 | 0.282 | 0.169
COR-L23 | 0.831 | 0.799 | 0.586 | 0.188 | 0.129 | 0.865 | 1.05 | 0.976 | 0.704 | 0.324 | 0.811 | 0.723 | 0.332 | 0.0914 | 0.104 | 0.394 | 0.479 | 0.434 | 0.287 | 0.155
